# Counter-ions that a name gives are not always drawn. Like-named read-outs stand apart in the source and are kept apart here. Bridge positions count the residues as written; N and C are the ends. Square brackets hold non-standard residues; d marks the D form. Peptide text beside a SMILES is read from it. * marks the point of attachment. X1 = CC[C@H](C)CCCCC(=O)*; Dab = NCC[C@H](N)C(=O)O
# Assays:
# ETEC: F4 [1] = test: Fecal ETEC: F4 shedding in challenged weaned pigs; assay type: in vivo
# Experimental: (§1) Pigs were selected based on the presence of the F4 receptor gene by PCR–RFLP as previously described at 4 days of age. Two trials of 48 pigs were conducted using different doses of CS [100 000 IU/kg (trial 1) or 50 000 IU/kg (trial 2)]. In each trial, four groups of 12 pigs were constituted: challenged treated, challenged untreated, unchallenged treated, and unchallenged untreated.
# (§2) For experimental infection of pigs, a nalidixic acid-resistant (Nal^r) variant of ETEC: F4 strain ECL8559 (O149: LT: STa: STb: East1: paa: hemβ: F4), kindly provided by the E. coli Laboratory as described previously, was used. The strain was passaged in a weaned pig to enhance its pathogenicity. A hemolytic, Nal^r colony isolated from the feces of this pig was confirmed to be positive for O149 and the virulence genes F4, STa, STb, LT by multiplex PCR as previously described. This strain, designated ECL8559A, was used in the experimental challenge in this study. After 1-week of acclimatization, 28-day-old pigs in the challenge groups were orally gavaged with 10^9 CFU of the ETEC: F4 strain in 5 mL of trypticase soy broth (Difco Laboratories, Inc., Detroit, MI, USA) following the administration of 10 mL of CaCO3 to neutralize gastric acid.
# (§3) Colistin sulfate (Bond & Beaulac Inc., QC, Canada) was administered by oral gavage in 5 mL of water using a polyethylene tube attached to a syringe, at a dose of 100 000 or 50 000 IU/kg in trials 1 and 2 respectively.
# Fresh fecal samples were obtained from pigs using pre-weighed sterile rectal swabs (Puritan Medical Products, Guilford, Maine, USA). Bacteriological examination of fecal samples was performed 1 day before and 1, 2, 3, 5, 6, 7, 8, 10, 13, 20, 27, 36 days after oral challenge to evaluate fecal excretion of the challenge ETEC: F4 strain and total E. coli count. […] Rectal swabs were weighed before and after sampling of pigs for individual fecal material quantification.
# total E. coli = test: Fecal total E. coli shedding in weaned pigs; assay type: in vivo
# Experimental: as §1, §2, §3
# Fresh fecal samples were obtained from pigs using pre-weighed sterile rectal swabs (Puritan Medical Products, Guilford, Maine, USA). Bacteriological examination of fecal samples was performed 1 day before and 1, 2, 3, 5, 6, 7, 8, 10, 13, 20, 27, 36 days after oral challenge to evaluate fecal excretion of the challenge ETEC: F4 strain and total E. coli count. One millilitre of buffered peptone water solution (BPW) was added to each swab and selected dilutions were plated on MacConkey agar and 5% bovine blood agar plates containing nalidixic acid at 50 μg/mL (Sigma-Aldrich Canada Ltd., Oakville, ON, Canada) to count the total E. coli population and the hemolytic challenge ETEC: F4 strain respectively, as previously described. In parallel, 5% bovine blood agar plates containing nalidixic acid at 50 μg/mL and CS at 2 μg/mL and MacConkey agar plates containing CS at 2 μg/mL were used to enumerate the CS resistant hemolytic challenge ETEC: F4 and total E. coli population respectively. The plates were incubated aerobically for 24 h at 37 °C. Isolates recovered from media containing 2 μg/mL of colistin were considered to be putative CS-resistant, as previously described. All samples were processed on the day of collection. Rectal swabs were weighed before and after sampling of pigs for individual fecal material quantification.
# ETEC: F4 [2] = test: Diarrhea score (fecal consistency 0-4) in ETEC: F4 challenged weaned pigs; assay type: in vivo; conditions: after 2 days of CS administration (d2), also d3 and d4, both trials, challenged treated vs challenged untreated, p < 0.0001
# Source text: as §2, with “acid. […]” for “acid.”
# After the oral challenge, pigs were observed daily for signs of anorexia, lethargy and diarrhea. The severity of diarrhea was assessed visually by using a fecal consistency scoring (0, normal; 1, soft feces; 2, mild diarrhea; 3, semi liquid diarrhea and 4, liquid diarrhea) as described by Jamalludeen et al.. The rectal body temperature was monitored daily using a digital thermometer.
# Ordinal diarrhea scores were analyzed with the Cochran-Mantel-Haenszel test at each time period.
# [3] = Body weight of weaned pigs; assay type: in vivo; conditions: both trials, challenged treated compared to challenged untreated pigs
# Experimental: Pigs were weighed individually using an electric scale prior to inoculation and at 6, 19 and 35 days after beginning CS treatment.
# Bacterial counts and CS plasma concentrations were log10 transformed prior to data analysis to normalize distributions. Total E. coli counts, ETEC: F4 counts, rectal temperature, and body weight were analyzed with repeated-measures ANOVA, with time as a within-subject factor and group as the between-subject factor. A priori contrasts were performed to compare group means at different time periods and to compare pre- and post-infection means in each treatment. For these multiple comparisons, the alpha level was adjusted downward using the Benjamini-Hochberg sequential procedure. A similar procedure was used to analyze CS plasma concentration to determine effect of ETEC: F4 oral challenge on CS intestinal absorption in pigs.
# [4] = CS plasma concentrations by HPLC-MS/MS after oral administration; assay type: in vivo, pigs; conditions: both trials
# Experimental: as §3
# Blood samples (3 mL) were collected using potassium EDTA tubes, from the jugular vein of eight pigs in each treated group, challenged or not of the two trials, at 0.5, 12, 24 and 48 h after the last CS oral administration on day 5.
# Plasma was separated by centrifugation at 3000 g for 10 min and stored at −20 °C prior to analysis. These samples were used to determine CS plasma concentrations by high performance HPLC–MS/MS, in order to determine the slope of the terminal phase (λz). The λz was calculated as the negative of the slope of the log-linear regression of the natural logarithm concentration–time curve during the terminal phase. The λz is an important parameter used to determine CS elimination half-life (T1/2), which is an index of drug persistence in the body. Bioanalyses and pharmacokinetic analyses were performed as previously described. The quantification of CS was based on the peak area ratio of the analyte with the internal standard. A calibration curve was used for determining the concentration of CS in all unknown samples by comparing the peak area ratio of the unknown samples to a set of standard samples of known concentration. […]
# E. coli K99 = conditions: CS 300 mg/kg of diet, 7 or 14 days, weanling pigs challenged with E. coli K99; cited from earlier work
# [5] = intramuscular (IM), pigs, cited from earlier work
# Source text: In our study, regardless of the dose, CS treatment led to a decrease of nearly 4 log cfu/g in fecal shedding of ETEC: F4 and total E. coli, but only during the treatment period. […] In our study, the effect of CS on the decrease of ETEC: F4 and total E. ...
smiles,measurement,setting,value
CC[C@H](C)CCCCC(=O)N[C@@H](CCN)C(=O)N[C@H](C(=O)N[C@@H](CCN)C(=O)N[C@H]1CCNC(=O)[C@H]([C@@H](C)O)NC(=O)[C@H](CCN)NC(=O)[C@H](CCN)NC(=O)[C@H](CC(C)C)NC(=O)[C@@H](CC(C)C)NC(=O)[C@H](CCN)NC1=O)[C@@H](C)O [Colistin sulfate] (X1-[Dab]T[Dab][Dab][Dab][dL]L[Dab][Dab]T; lactam 4-C),fecal ETEC: F4 shedding,"ETEC: F4 [1]; both trials (100 000 or 50 000 IU/kg oral, twice daily, 5 days), between d2 and d6, treated vs untreated challenged pigs, p < 0.0001",significant reduction
same,levels of ETEC: F4 in feces,"ETEC: F4 [1]; both trials, most pigs, between d4 and d6",dropped below our detection limit
same,decrease in fecal shedding of ETEC: F4,"ETEC: F4 [1]; regardless of the dose, only during the treatment period",~4 log cfu/g
same,fecal total E. coli shedding,"total E. coli; trial 1, 100 000 IU/kg oral twice daily 5 days, d1 to d5, challenged treated vs challenged untreated, p < 0.0001",significant reduction
same,fecal total E. coli shedding,"total E. coli; trial 1, 100 000 IU/kg, d2 to d6, unchallenged treated vs unchallenged untreated, p < 0.0001",significant reduction
same,fecal total E. coli shedding,"total E. coli; trial 2, 50 000 IU/kg oral twice daily 5 days, d1 to d6, challenged treated vs challenged untreated, p < 0.0007",significant reduction
same,fecal total E. coli shedding,"total E. coli; trial 2, 50 000 IU/kg, d2 to d5, unchallenged treated vs unchallenged untreated, p < 0.0001",significant reduction
same,diarrhea scores,ETEC: F4 [2],significantly decreased
same,pig weight losses,[3],did not prevent pig weight losses
same,plasma concentrations,"[4]; 48 h following the last CS administration, LLOQ 1 ng/mL of plasma",below the LLOQ
same,"CS plasma concentrations, challenged treated compared to unchallenged treated groups",[4]; all sampling times,higher
same,reduction of the number of E. coli in cecal digesta,E. coli K99,4.38 log cfu/g
same,reduction of the number of E. coli in ileal digesta,E. coli K99,5.30 log cfu/g
same,systemic bioavailability,[5]; 2.5 mg/kg bw,95.94%
same,systemic bioavailability,[5]; 5 mg/kg bw,88.45%

# From article PMC4884413, “In vivo therapeutic efficacy and pharmacokinetics of colistin sulfate in an experimental model of enterotoxigenic Escherichia coli infection in weaned pigs” (Veterinary Research, 2016)
